Test results reported in article PMC3515654 (ChemMedChem, 2011).
Each block holds one compound with its values, some of them ahead of it.

Tests used:
[1] = molecular target: D2-like dopamine receptors (Sus scrofa, UniProt A0ACM8QMZ9); conditions: porcine striatal binding, D1-like vs D2-like
[2] = molecular target: D1-like dopamine receptors (Sus scrofa, UniProt P50130); type: binding; conditions: porcine striatum; for Fold D1-like Selectivity: ratio of D2-like Ki to D1-like Ki
[3] = pKa of synthetic acids, used for separation by titration; type: physicochemical

Sequence of D1-like dopamine receptors (P50130 whole entry): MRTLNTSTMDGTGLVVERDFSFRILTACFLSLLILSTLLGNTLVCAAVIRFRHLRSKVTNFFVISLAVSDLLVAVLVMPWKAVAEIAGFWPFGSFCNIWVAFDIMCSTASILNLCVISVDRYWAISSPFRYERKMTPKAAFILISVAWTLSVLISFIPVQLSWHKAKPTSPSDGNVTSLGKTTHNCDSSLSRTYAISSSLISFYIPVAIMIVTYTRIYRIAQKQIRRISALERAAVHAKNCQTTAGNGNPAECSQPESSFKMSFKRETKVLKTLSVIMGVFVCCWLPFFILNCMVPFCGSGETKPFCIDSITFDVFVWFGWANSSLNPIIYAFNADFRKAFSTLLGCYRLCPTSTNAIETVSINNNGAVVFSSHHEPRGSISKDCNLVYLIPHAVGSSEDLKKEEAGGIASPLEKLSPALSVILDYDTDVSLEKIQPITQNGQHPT
Sequence of D2-like dopamine receptors (A0ACM8QMZ9 1-443): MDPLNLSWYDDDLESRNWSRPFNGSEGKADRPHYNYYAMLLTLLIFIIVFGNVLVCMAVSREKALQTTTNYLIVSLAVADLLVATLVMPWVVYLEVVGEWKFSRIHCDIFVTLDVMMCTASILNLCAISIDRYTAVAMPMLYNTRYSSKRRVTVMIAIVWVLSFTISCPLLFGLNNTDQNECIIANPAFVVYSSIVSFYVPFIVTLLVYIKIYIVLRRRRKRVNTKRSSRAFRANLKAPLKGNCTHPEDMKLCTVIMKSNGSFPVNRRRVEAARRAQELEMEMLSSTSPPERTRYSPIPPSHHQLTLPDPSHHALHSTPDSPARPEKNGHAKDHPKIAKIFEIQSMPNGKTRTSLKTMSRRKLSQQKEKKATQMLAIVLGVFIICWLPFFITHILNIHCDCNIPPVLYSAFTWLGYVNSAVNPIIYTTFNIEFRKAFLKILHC

Fold D1-like Selectivity [2]: 92 fold
SMILES: NC[C@@H]1O[C@H](c2ccccc2)Cc2c1ccc(O)c2O [1d, reference compound]

pKa [3]: ~3.6
SMILES: COc1cccc(C2OC(=O)CC2C(=O)O)c1OC (stereo not drawn) [compound 18, 2-(2,3-Dimethoxyphenyl)-5-oxo-tetrahydrofuran-3-carboxylic acid]

Continued, compound first:

SMILES: Cl.NCC1CCOc2c1ccc(O)c2O (stereo not drawn) [2a, 7,8-Dihydroxy-4-aminomethylchroman hydrochloride]
Receptor subtype selectivity [1]: selectivity for D2-like receptors

SMILES: NC[C@@H]1O[C@H](C23CC4CC(CC(C4)C2)C3)Cc2c1ccc(O)c2O [1c, reference compound]
Fold D1-like Selectivity [2]: 480 fold

SMILES: Br.NC[C@H]1C[C@@H](C23CC4CC(CC(C4)C2)C3)Cc2c1ccc(O)c2O (relative stereo) [3c, Cis-5-(aminomethyl)-7-adamantyl-5,6,7,8-tetrahydronaphthalene-1,2-diol hydrobromide]
Fold higher binding affinity at D1-like receptors compared to 2c ([2]; relative to 2c): ~20 fold | Fold D1-like Selectivity [2]: 55 fold
